Assay results: the NIST ThermoML archive (doi:10.1021/je500784s)
“And” between values parts separate entries of the source, which are not always exact repeats. Identical values can stand only once. Numbers after ± are expanded uncertainties.

What was measured:
[1] = for vapor or sublimation pressure: Transpiration method; for Normal melting temperature: DTA
[2] = Molar enthalpy of transition or fusion; conditions: Crystal; DSC

Cc1cccc(Br)c1 [1-bromo-3-methylbenzene]
[1], Liquid
Conditions	vapor or sublimation pressure
274.2 K	0.02006 ± 0.0013 kPa
276.2 K	0.0234 ± 0.0015 kPa
278.2 K	0.02748 ± 0.0017 kPa
278.3 K	0.02776 ± 0.0017 kPa
279.2 K	0.0289 ± 0.0019 kPa
280.3 K	0.03259 ± 0.0022 kPa
281.3 K	0.0351 ± 0.0021 kPa
282.2 K	0.03686 ± 0.0022 kPa
282.5 K	0.03833 ± 0.0023 kPa
284.2 K	0.0421 ± 0.0026 kPa and 0.04171 ± 0.0026 kPa
287.2 K	0.05299 ± 0.0033 kPa
287.3 K	0.0526 ± 0.0033 kPa
290.2 K	0.06611 ± 0.0042 kPa
290.4 K	0.06761 ± 0.0043 kPa
293.2 K	0.08432 ± 0.0051 kPa
293.6 K	0.08569 ± 0.0051 kPa
296.2 K	0.09718 ± 0.0076 kPa
296.7 K	0.1039 ± 0.0078 kPa
299.2 K	0.1199 ± 0.0085 kPa
299.8 K	0.1279 ± 0.0079 kPa
302.2 K	0.1478 ± 0.0088 kPa
302.8 K	0.1548 ± 0.0095 kPa
305.2 K	0.18 ± 0.011 kPa
308.2 K	0.2084 ± 0.012 kPa and 0.2115 ± 0.012 kPa and 0.2068 ± 0.012 kPa

Cc1cccc(I)c1 [1-iodo-3-methylbenzene]
[1], Liquid
Conditions	vapor or sublimation pressure
275.7 K	0.00715 ± 0.00046 kPa
279.3 K	0.00936 ± 0.00058 kPa
281.9 K	0.01131 ± 0.00069 kPa
283.5 K	0.01241 ± 0.00079 kPa
286.4 K	0.0157 ± 0.00099 kPa
289.3 K	0.01945 ± 0.0013 kPa and 0.01996 ± 0.0013 kPa
293.1 K	0.02757 ± 0.0018 kPa
293.2 K	0.02683 ± 0.0018 kPa
298.1 K	0.0403 ± 0.0025 kPa
298.2 K	0.03887 ± 0.0024 kPa
302.9 K	0.05424 ± 0.0034 kPa and 0.05679 ± 0.0035 kPa
308 K	0.07665 ± 0.0047 kPa and 0.07718 ± 0.0047 kPa
313.1 K	0.1065 ± 0.0063 kPa

Cc1ccccc1Br [2-bromotoluene]
[1], Liquid
Conditions	vapor or sublimation pressure
281.2 K	0.04946 ± 0.0031 kPa
284.2 K	0.06067 ± 0.0037 kPa
285.2 K	0.06568 ± 0.0041 kPa
287.2 K	0.07592 ± 0.0047 kPa and 0.07526 ± 0.0047 kPa
290.2 K	0.09238 ± 0.0056 kPa
293.2 K	0.1131 ± 0.0069 kPa
296.2 K	0.1381 ± 0.0084 kPa
299.2 K	0.1684 ± 0.01 kPa
302.2 K	0.2053 ± 0.013 kPa
305.2 K	0.25 ± 0.015 kPa
308.2 K	0.3008 ± 0.018 kPa [middle of 4 runs]
313.1 K	0.3903 ± 0.023 kPa [middle of 6 runs]

Cc1cccc(C)c1I [1-iodo-2,6-dimethylbenzene]
[1], Liquid
Conditions	vapor or sublimation pressure [kPa]
284.5 K	0.005 ± 0.00035
288.4 K	0.00709 ± 0.00046
291.6 K	0.00925 ± 0.00061
296.5 K	0.014 ± 0.00086
298.4 K	0.01572 ± 0.00095
299.5 K	0.01696 ± 0.0011
301.5 K	0.01972 ± 0.0013
303.3 K	0.02303 ± 0.0015
306.4 K	0.02867 ± 0.0018
308.3 K	0.03267 ± 0.0021
311.4 K	0.04222 ± 0.0026
313.6 K	0.04835 ± 0.0029
316.4 K	0.05818 ± 0.0035
318.4 K	0.06657 ± 0.0041
321.2 K	0.08028 ± 0.0049
323.4 K	0.09228 ± 0.0057
326.3 K	0.1123 ± 0.0068
328.5 K	0.1277 ± 0.0077
331.3 K	0.1526 ± 0.0091
333.4 K	0.1721 ± 0.01

Cc1ccc(Br)cc1 [4-bromotoluene]
Conditions	Molar enthalpy of transition or fusion [kcal/mol]
[2]	3.56 ± 0.167

[1]
Conditions	vapor or sublimation pressure [kPa]
274.5 K, Crystal	0.01409 ± 0.001
277.2 K, Crystal	0.01853 ± 0.0012
278.3 K, Crystal	0.02013 ± 0.0014
280.2 K, Crystal	0.02439 ± 0.0016
282.2 K, Crystal	0.02935 ± 0.0019
283.2 K, Crystal	0.0328 ± 0.0023
285.5 K, Crystal	0.04128 ± 0.0027
286.2 K, Crystal	0.04379 ± 0.0028
288.3 K, Crystal	0.05178 ± 0.0033
289.6 K, Crystal	0.05809 ± 0.004
291.2 K, Crystal	0.06948 ± 0.0046
294.3 K, Crystal	0.08957 ± 0.0058
297.3 K, Crystal	0.1161 ± 0.0072
298.2 K, Crystal	0.1223 ± 0.0079
299.2 K, Crystal	0.1357 ± 0.0089
300.8 K, Crystal	0.1543 ± 0.0097
301.9 K, Liquid	0.1746 ± 0.011
304.2 K, Liquid	0.1989 ± 0.012
304.9 K, Liquid	0.2137 ± 0.013
307.2 K, Liquid	0.2422 ± 0.015
310.3 K, Liquid	0.2964 ± 0.018
313.2 K, Liquid	0.3477 ± 0.02
314.4 K, Liquid	0.3671 ± 0.021
316.3 K, Liquid	0.4044 ± 0.024
317.5 K, Liquid	0.4335 ± 0.026
319.3 K, Liquid	0.4827 ± 0.028
320.6 K, Liquid	0.507 ± 0.03
322.4 K, Liquid	0.5742 ± 0.034
325.3 K, Liquid	0.6696 ± 0.04
328.2 K, Liquid	0.7835 ± 0.045
331.3 K, Liquid	0.8879 ± 0.051
332.3 K, Liquid	0.9409 ± 0.056
335.3 K, Liquid	1.1 ± 0.06

Conditions	Normal melting temperature [°C]
[1], Crystal	28.2 ± 0.5

Cc1ccc(I)cc1 [4-iodotoluene]
Conditions	Molar enthalpy of transition or fusion [kcal/mol]
[2]	3.59 ± 0.167

[1]
Conditions	vapor or sublimation pressure
279.5 K, Crystal	0.00537 ± 0.0004 kPa
283.3 K, Crystal	0.008 ± 0.00055 kPa
286.3 K, Crystal	0.01101 ± 0.00074 kPa
289.4 K, Crystal	0.01456 ± 0.00097 kPa
293.2 K, Crystal	0.0205 ± 0.0014 kPa and 0.02183 ± 0.0015 kPa
298.1 K, Crystal	0.0335 ± 0.0023 kPa
303 K, Crystal	0.0526 ± 0.0033 kPa
308 K, Liquid	0.08115 ± 0.0051 kPa
311 K, Liquid	0.09922 ± 0.006 kPa
315 K, Liquid	0.1261 ± 0.0075 kPa
319.1 K, Liquid	0.1599 ± 0.0095 kPa
323.2 K, Liquid	0.2025 ± 0.012 kPa
328.1 K, Liquid	0.2776 ± 0.017 kPa
332.9 K, Liquid	0.3665 ± 0.021 kPa

Conditions	Normal melting temperature [°C]
[1], Crystal	34.4 ± 0.5

Ic1ccccc1 [iodobenzene]
[1], Liquid
Conditions	vapor or sublimation pressure [kPa]
283.8 K	0.05269 ± 0.0032
286.8 K	0.06386 ± 0.004
289.9 K	0.08034 ± 0.0049
293 K	0.09644 ± 0.0057
294 K	0.1029 ± 0.0065
296.8 K	0.1261 ± 0.0077
299.6 K	0.1487 ± 0.0091
302.6 K	0.1853 ± 0.011
305.7 K	0.2226 ± 0.013
308.7 K	0.2722 ± 0.016
311.8 K	0.3239 ± 0.02
314.6 K	0.3944 ± 0.024

Cc1ccccc1I [1-iodo-2-methylbenzene]
[1], Liquid
Conditions	vapor or sublimation pressure [kPa]
283.2 K	0.01623 ± 0.0011
288.2 K	0.02387 ± 0.0015
293.2 K	0.0355 ± 0.0023
301.2 K	0.06212 ± 0.0037
304.2 K	0.07615 ± 0.0047
307.4 K	0.0943 ± 0.0057
310.3 K	0.1131 ± 0.0068
313.1 K	0.1354 ± 0.0082
316.2 K	0.1655 ± 0.01
319.3 K	0.1983 ± 0.012
322.1 K	0.2325 ± 0.014
325.1 K	0.2843 ± 0.017

Brc1ccccc1 [bromobenzene]
[1], Liquid
Conditions	vapor or sublimation pressure [kPa]
276.4 K	0.1345 ± 0.0084
278.3 K	0.1534 ± 0.0094
282.2 K	0.1957 ± 0.012
283.1 K	0.2092 ± 0.013
285.4 K	0.2487 ± 0.015
286.2 K	0.2532 ± 0.015
288.3 K	0.2954 ± 0.018
289.3 K	0.3211 ± 0.019
291.4 K	0.3549 ± 0.021
292.4 K	0.3794 ± 0.024
293.2 K	0.4046 ± 0.025
294.4 K	0.4413 ± 0.026
295.5 K	0.4596 ± 0.028
297.4 K	0.5225 ± 0.032
300.4 K	0.6407 ± 0.039
303.4 K	0.7604 ± 0.045

Cc1cccc(C)c1Br [2-bromo-1,3-dimethylbenzene]
[1], Liquid
Conditions	vapor or sublimation pressure
274.2 K	0.00695 ± 0.00048 kPa
276.2 K	0.0084 ± 0.00056 kPa
278.3 K	0.01013 ± 0.00066 kPa
281.2 K	0.01282 ± 0.00081 kPa
284.2 K	0.0161 ± 0.001 kPa
287.2 K	0.02071 ± 0.0013 kPa
290.2 K	0.02551 ± 0.0016 kPa
293.3 K	0.0317 ± 0.002 kPa and 0.03214 ± 0.002 kPa
293.4 K	0.03244 ± 0.002 kPa
296.3 K	0.03998 ± 0.0025 kPa
299.3 K	0.04922 ± 0.0031 kPa
302.2 K	0.06313 ± 0.004 kPa
305.3 K	0.07815 ± 0.0047 kPa

Cc1ccc(I)c(C)c1 [1-iodo-2,4-dimethylbenzene]
[1], Liquid
Conditions	vapor or sublimation pressure
293.5 K	0.00972 ± 0.00065 kPa
298.4 K	0.01434 ± 0.0009 kPa
301.4 K	0.01827 ± 0.0012 kPa
303.4 K	0.02175 ± 0.0014 kPa
306.3 K	0.02654 ± 0.0016 kPa
308.3 K	0.03017 ± 0.0019 kPa
311.3 K	0.03876 ± 0.0024 kPa
313.3 K	0.04322 ± 0.0027 kPa
316.4 K	0.05407 ± 0.0033 kPa
318.6 K	0.06284 ± 0.0038 kPa
321.4 K	0.07438 ± 0.0044 kPa
323.4 K	0.08333 ± 0.0052 kPa
326.4 K	0.1058 ± 0.0064 kPa and 0.1032 ± 0.0062 kPa
328.5 K	0.1158 ± 0.0066 kPa
